The Kinase Knowledgebase extract (Sharma et al. 2016)
Where “and” joins values, the source holds several entries; their conditions need not be identical. Equal entries are not always repeated.

Target: ROCK2 (human) (UniProt O75116)
Assay: Inhibition of ROCK2 Kinase Activity

ROCK2 (human), sequence (O75116 whole entry, looked up): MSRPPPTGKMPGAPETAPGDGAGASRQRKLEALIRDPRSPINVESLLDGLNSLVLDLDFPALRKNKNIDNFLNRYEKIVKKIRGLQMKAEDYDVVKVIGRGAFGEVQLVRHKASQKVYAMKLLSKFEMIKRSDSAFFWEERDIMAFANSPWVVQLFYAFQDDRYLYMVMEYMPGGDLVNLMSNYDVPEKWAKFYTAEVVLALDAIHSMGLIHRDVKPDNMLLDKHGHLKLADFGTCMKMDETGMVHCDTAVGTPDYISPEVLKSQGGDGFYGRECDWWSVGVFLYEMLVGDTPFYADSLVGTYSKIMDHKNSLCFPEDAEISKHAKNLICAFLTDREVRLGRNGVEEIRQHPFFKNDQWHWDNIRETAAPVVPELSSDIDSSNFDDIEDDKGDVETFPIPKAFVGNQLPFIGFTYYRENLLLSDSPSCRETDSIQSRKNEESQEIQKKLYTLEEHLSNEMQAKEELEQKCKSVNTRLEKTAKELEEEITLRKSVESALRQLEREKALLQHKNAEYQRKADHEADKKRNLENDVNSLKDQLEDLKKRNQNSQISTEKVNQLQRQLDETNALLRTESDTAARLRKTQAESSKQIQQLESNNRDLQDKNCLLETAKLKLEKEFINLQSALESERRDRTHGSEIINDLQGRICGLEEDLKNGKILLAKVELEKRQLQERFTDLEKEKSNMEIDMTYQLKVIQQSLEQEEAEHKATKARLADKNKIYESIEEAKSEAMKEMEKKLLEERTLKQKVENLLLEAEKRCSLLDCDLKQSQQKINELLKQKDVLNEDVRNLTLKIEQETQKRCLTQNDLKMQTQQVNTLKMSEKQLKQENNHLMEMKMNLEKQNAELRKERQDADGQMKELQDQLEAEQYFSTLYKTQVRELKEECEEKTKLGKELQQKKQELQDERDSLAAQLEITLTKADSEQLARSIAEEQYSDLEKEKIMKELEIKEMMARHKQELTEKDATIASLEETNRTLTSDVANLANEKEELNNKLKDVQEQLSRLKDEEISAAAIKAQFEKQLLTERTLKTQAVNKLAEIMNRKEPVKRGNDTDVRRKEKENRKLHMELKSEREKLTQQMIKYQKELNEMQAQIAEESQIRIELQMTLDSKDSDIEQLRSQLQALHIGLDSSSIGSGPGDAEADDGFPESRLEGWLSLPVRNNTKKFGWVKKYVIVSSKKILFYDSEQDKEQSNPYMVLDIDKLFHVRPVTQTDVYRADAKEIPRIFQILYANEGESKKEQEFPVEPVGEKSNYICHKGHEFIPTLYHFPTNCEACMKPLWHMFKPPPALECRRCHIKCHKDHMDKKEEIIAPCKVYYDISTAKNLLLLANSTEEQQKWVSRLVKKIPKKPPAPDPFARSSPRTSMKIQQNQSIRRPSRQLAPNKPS

| Compound | IC50 |
| --- | --- |
| CC[C@H](N)[C@]1(C2CCOCC2)CC[C@H](Oc2cc3cc[nH]c(=O)c3cc2Cl)CC1 | 10 to 100 nM |
| CC[C@]1(C(C)N)CC[C@@H](Oc2ccc3cnccc3c2Cl)CC1 (some centres undefined) | 100 to 1000 nM |
| CCCC(N)[C@]1(C(C)C)CC[C@H](Oc2cc3cc[nH]c(=O)c3cc2Cl)CC1 (some centres undefined) | 10 to 100 nM |
| CC(C)C1(C(N)c2nccs2)CCC(Oc2cc3cc[nH]c(=O)c3cc2Cl)CC1 (centres undefined) | 100 to 1000 nM |
| CC[C@]1(C(N)CF)CC[C@H](Oc2cc3cc[nH]c(=O)c3cc2Cl)CC1 (some centres undefined) | 10 to 100 nM |
| CC[C@]1(C(N)CF)CC[C@@H](Oc2cc3cc[nH]c(=O)c3cc2Cl)CC1 (some centres undefined) | ≤ 10 nM |
| CCC(N)[C@]1(C2CCS(=O)(=O)CC2)CC[C@H](Oc2cc3cc[nH]c(=O)c3cc2Cl)CC1 (some centres undefined) | ≤ 10 nM |
| CCC(NCC(C)C)[C@]1(CC)CC[C@H](Oc2cc3cc[nH]c(=O)c3cc2Cl)CC1 (some centres undefined) | 100 to 1000 nM |
| CCC(N)[C@]1(C2CCCCC2)CC[C@H](Oc2cc3cc[nH]c(=O)c3cc2Cl)CC1 (some centres undefined) | 10 to 100 nM |
| CCC(N)[C@]1(CC)CC[C@H](Oc2c(F)cc3c(=O)[nH]ccc3c2C)CC1 (some centres undefined) | 100 to 1000 nM |
| CC[C@]1(C(C)N)CC[C@@H](Oc2c(F)cc3c(=O)[nH]ccc3c2C)CC1 (some centres undefined) | 100 to 1000 nM |
| CCC(N)[C@]1(CC)CC[C@H](Oc2c(F)cc3cnccc3c2C)CC1 (some centres undefined) | 100 to 1000 nM |
| CCOC1(C(N)CC)CCC(Oc2cc3cc[nH]c(=O)c3cc2Cl)CC1 (centres undefined) | 10 to 100 nM |
| CCC(N)C1(C(C)C)CCC(Oc2cc3cc[nH]c(=O)c3cc2Cl)CC1 (centres undefined) | ≤ 10 nM and 10 to 100 nM |
| CCC(N)[C@]1(OC)CC[C@H](Oc2cc3cc[nH]c(=O)c3cc2Cl)CC1 (some centres undefined) | 10 to 100 nM |
| CC[C@]1(C(C)N)CC[C@@H](Oc2cc3c(Cc4ccccc4)c[nH]c(=O)c3cc2Cl)CC1 (some centres undefined) | 100 to 1000 nM |
| CCC(N)[C@]1(CC)CC[C@H](Oc2cc3ccncc3cc2C)CC1 (some centres undefined) | 100 to 1000 nM |
| CCC(N)[C@]1(CC)CC[C@H](Oc2c(C)cc3cnccc3c2C)CC1 (some centres undefined) | 100 to 1000 nM |
| C[C@]1(C(N)c2ccccc2)CC[C@@H](Oc2cc3cc[nH]c(=O)c3cc2Cl)CC1 (some centres undefined) | 10 to 100 nM |
| CCC(N)[C@]1(CCCC(F)(F)F)CC[C@H](Oc2cc3cc[nH]c(=O)c3cc2Cl)CC1 (some centres undefined) | ≤ 10 nM |
| CCCC[C@]1(C(N)CC)CC[C@@H](Oc2cc3c(Cc4ccccc4)c[nH]c(=O)c3cc2Cl)CC1 (some centres undefined) | 100 to 1000 nM |

| Compound | IC50 |
| --- | --- |
| CC[C@]1(C(C)N)CC[C@@H](Oc2c(F)cc3cnccc3c2C)CC1 (some centres undefined) | 100 to 1000 nM |
| CCC(N)C1(Cc2ccccc2)CCC(Oc2cc3cc[nH]c(=O)c3cc2Cl)CC1 (centres undefined) | 10 to 100 nM |
| CC(C)C1(C(N)c2cncs2)CCC(Oc2cc3cc[nH]c(=O)c3cc2Cl)CC1 (centres undefined) | 10 to 100 nM |
| CCC(N)[C@]1(CC)CC[C@H](Oc2cc3cc[nH]c(=O)c3cc2C)CC1 (some centres undefined) | 100 to 1000 nM |
| CCC(N)[C@]1(C2CCOCC2)CC[C@@H](Oc2cc3cc[nH]c(=O)c3cc2Cl)CC1 (some centres undefined) | 100 to 1000 nM |
| CCC(N)[C@]1(OC)CC[C@@H](Oc2cc3cc[nH]c(=O)c3cc2Cl)CC1 (some centres undefined) | 10 to 100 nM |
| CC[C@@H](N)[C@]1(C2CCOCC2)CC[C@H](Oc2cc3cc[nH]c(=O)c3cc2Cl)CC1 | ≤ 10 nM |
| CC[C@]1(C(C)N)CC[C@@H](Oc2cc3ccncc3cc2Br)CC1 (some centres undefined) | 100 to 1000 nM |
| CC(C)C(N)C1(C(C)C)CCC(Oc2cc3cc[nH]c(=O)c3cc2Cl)CC1 (centres undefined) | 100 to 1000 nM |
| CCC(N)C1(C(F)(F)F)CCC(Oc2cc3cc[nH]c(=O)c3cc2Cl)CC1 (centres undefined) | 100 to 1000 nM and ≤ 10 nM |
| CCC(N)[C@]1(CC)CC[C@H](Oc2cc3cc[nH]c(=O)c3cc2F)CC1 (some centres undefined) | 10 to 100 nM |
| CCC(NCc1ccccc1)[C@]1(CC)CC[C@H](Oc2cc3cc[nH]c(=O)c3cc2Cl)CC1 (some centres undefined) | 100 to 1000 nM |
| NC(c1ccccc1)[C@]1(CC2CC2)CC[C@H](Oc2cc3cc[nH]c(=O)c3cc2Cl)CC1 (some centres undefined) | 100 to 1000 nM |
| CC[C@]1(C(C)N)CC[C@@H](Oc2cc3cc[nH]c(=O)c3cc2F)CC1 (some centres undefined) | 10 to 100 nM |
| CCCCNC(CC)[C@]1(CC)CC[C@H](Oc2cc3cc[nH]c(=O)c3cc2Cl)CC1 (some centres undefined) | 100 to 1000 nM |
| CCC(N)[C@]1(C(C)C)CC[C@H](Oc2cc3c(F)c[nH]c(=O)c3cc2Cl)CC1 (some centres undefined) | 10 to 100 nM |
| CCC(N)[C@]1(C2CCOCC2)CC[C@H](Oc2cc3cc[nH]c(=O)c3cc2Cl)CC1 (some centres undefined) | ≤ 10 nM |
| NC(c1ccccc1)C1(C2CCCC2)CCC(Oc2cc3cc[nH]c(=O)c3cc2Cl)CC1 (centres undefined) | 10 to 100 nM |
| CC[C@]1(C(C)N)CC[C@@H](Oc2cc3cc[nH]c(=O)c3cc2C)CC1 (some centres undefined) | 10 to 100 nM |
| CCC[C@]1(C(C)N)CC[C@@H](Oc2cc3ccnc(N)c3cc2Cl)CC1 (some centres undefined) | 100 to 1000 nM |
| CCC(N)[C@]1(CC)CC[C@H](Oc2c(C)cc3c(=O)[nH]ccc3c2C)CC1 (some centres undefined) | 100 to 1000 nM |

Second part, the compound after the results:

| IC50 | Compound |
| --- | --- |
| 10 to 100 nM | CC(N)C1(C2CCC2)CCC(Oc2cc3cc[nH]c(=O)c3cc2Cl)CC1 (centres undefined) |
| ≤ 10 nM | CCOC[C@]1(C(N)CC)CC[C@@H](Oc2cc3cc[nH]c(=O)c3cc2Cl)CC1 (some centres undefined) |
| ≤ 10 nM | NC(C1CC1)[C@]1(CCCC(F)(F)F)CC[C@H](Oc2cc3cc[nH]c(=O)c3cc2Cl)CC1 (some centres undefined) |
| ≤ 10 nM | C[C@]1(C(N)C2CC2)CC[C@@H](Oc2cc3cc[nH]c(=O)c3cc2Cl)CC1 (some centres undefined) |
| ≤ 10 nM | CCCC[C@]1(C(N)CC)CC[C@@H](Oc2cc3cc[nH]c(=O)c3cc2Cl)CC1 (some centres undefined) |
| 10 to 100 nM and ≤ 10 nM | CCCC(N)C1(CC2CC2)CCC(Oc2cc3cc[nH]c(=O)c3cc2Cl)CC1 (centres undefined) |
| 10 to 100 nM and 100 to 1000 nM | CCC(N)C1(CC(C)C)CCC(Oc2cc3cc[nH]c(=O)c3cc2Cl)CC1 (centres undefined) |
| ≤ 10 nM | CCC(N)[C@]1(C2CC2)CC[C@H](Oc2cc3cc[nH]c(=O)c3cc2Cl)CC1 (some centres undefined) |
| ≤ 10 nM | CC(C)CC(N)[C@]1(CC2CC2)CC[C@H](Oc2cc3cc[nH]c(=O)c3cc2Cl)CC1 (some centres undefined) |
| 100 to 1000 nM | NC(C(F)(F)F)C1(CC2CC2)CCC(Oc2cc3cc[nH]c(=O)c3cc2Cl)CC1 (centres undefined) |
| ≤ 10 nM | CC[C@H](N)[C@]1(CC)CC[C@H](Oc2cc3cc[nH]c(=O)c3cc2Cl)CC1 |
| 10 to 100 nM and ≤ 10 nM | CCC1(C(C)N)CCC(Oc2cc3cc[nH]c(=O)c3cc2Cl)CC1 (centres undefined) |
| ≤ 10 nM and 10 to 100 nM | CCCC1(C(N)C2CC2)CCC(Oc2cc3cc[nH]c(=O)c3cc2Cl)CC1 (centres undefined) |
| ≤ 10 nM | NC(C1CC1)[C@]1(C2CC2)CC[C@H](Oc2cc3cc[nH]c(=O)c3cc2Cl)CC1 (some centres undefined) |
| ≤ 10 nM | CCC(N)[C@]1(C)CC[C@H](Oc2cc3cc[nH]c(=O)c3cc2Cl)CC1 (some centres undefined) |
| ≤ 10 nM | CC[C@@H](N)[C@]1(CC)CC[C@H](Oc2cc3cc[nH]c(=O)c3cc2Cl)CC1 |
| 10 to 100 nM and ≤ 10 nM | NC(C1CC1)C1(CC2CC2)CCC(Oc2cc3cc[nH]c(=O)c3cc2Cl)CC1 (centres undefined) |
| 10 to 100 nM | CCC1(C(N)CCOC)CCC(Oc2cc3cc[nH]c(=O)c3cc2Cl)CC1 (centres undefined) |
| 10 to 100 nM and 100 to 1000 nM | CCC(N)C1(C2CCC2)CCC(Oc2cc3cc[nH]c(=O)c3cc2Cl)CC1 (centres undefined) |

| IC50 | Compound |
| --- | --- |
| ≤ 10 nM | CC[C@]1(C(N)C2CC2)CC[C@@H](Oc2cc3cc[nH]c(=O)c3cc2Cl)CC1 (some centres undefined) |
| 10 to 100 nM and ≤ 10 nM | CC(N)C1(CC2CC2)CCC(Oc2cc3cc[nH]c(=O)c3cc2Cl)CC1 (centres undefined) |
| 10 to 100 nM | CCC(N)C1(C2CCCC2)CCC(Oc2cc3cc[nH]c(=O)c3cc2Cl)CC1 (centres undefined) |
| ≤ 10 nM | CCC[C@]1(C(C)N)CC[C@@H](Oc2cc3cc[nH]c(=O)c3cc2Cl)CC1 (some centres undefined) |
| 10 to 100 nM and ≤ 10 nM | CCC(N)C1(CC2CC2)CCC(Oc2cc3cc[nH]c(=O)c3cc2Cl)CC1 (centres undefined) |
| 10 to 100 nM | CCC(N)[C@]1(CC2CCOCC2)CC[C@H](Oc2cc3cc[nH]c(=O)c3cc2Cl)CC1 (some centres undefined) |
| ≤ 10 nM | CCC(N)[C@]1(CC)CC[C@H](Oc2cc3cc[nH]c(=O)c3cc2Cl)CC1 (some centres undefined) |
| 10 to 100 nM | CC(N)[C@]1(C2CC2)CC[C@H](Oc2cc3cc[nH]c(=O)c3cc2Cl)CC1 (some centres undefined) |
| ≤ 10 nM | CCCC(N)[C@]1(C)CC[C@H](Oc2cc3cc[nH]c(=O)c3cc2Cl)CC1 (some centres undefined) |
| ≤ 10 nM | NC(C1CC1)[C@]1(CC2CCOCC2)CC[C@H](Oc2cc3cc[nH]c(=O)c3cc2Cl)CC1 (some centres undefined) |
| ≤ 10 nM | CCCC1(C(N)CC)CCC(Oc2cc3cc[nH]c(=O)c3cc2Cl)CC1 (centres undefined) |
| 10 to 100 nM | CCC(N)C1(C)CCC(Oc2cc3cc[nH]c(=O)c3cc2Cl)CC1 (centres undefined) |
| ≤ 10 nM | CC[C@@H](N)[C@]1(C)CC[C@H](Oc2cc3cc[nH]c(=O)c3cc2Cl)CC1 |
| ≤ 10 nM | CC(C)C(N)C1(CC2CC2)CCC(Oc2cc3cc[nH]c(=O)c3cc2Cl)CC1 (centres undefined) |
| 100 to 1000 nM | CCC(NCC1CC1)[C@]1(CC)CC[C@H](Oc2cc3cc[nH]c(=O)c3cc2Cl)CC1 (some centres undefined) |
| 10 to 100 nM and 100 to 1000 nM | CCC(N)C1(COC(C)C)CCC(Oc2cc3cc[nH]c(=O)c3cc2Cl)CC1 (centres undefined) |
| ≤ 10 nM | CCC(N)[C@]1(C2CCSCC2)CC[C@H](Oc2cc3cc[nH]c(=O)c3cc2Cl)CC1 (some centres undefined) |
| ≤ 10 nM | CC[C@H](N)[C@]1(C)CC[C@H](Oc2cc3cc[nH]c(=O)c3cc2Cl)CC1 |
